Laboratory results: patent publication US20210059984A1, “METHOD AND COMPOSITION FOR REVERSING COGNITIVE IMPAIRMENTS AND LOSS USING SGLT2 INHIBITORS” (TAISHO PHARMACEUTICAL CO., LTD., priority 2019, published 2021)

Key:
diabetic patients = details: mean age 77 years, 12-month administration; cited from earlier work
SGLT2 = target: T1, SGLT2 (Homo sapiens, UniProt P31639); details: among the three FDA approved drugs; cited from earlier work
T1 sequence (P31639 1-672): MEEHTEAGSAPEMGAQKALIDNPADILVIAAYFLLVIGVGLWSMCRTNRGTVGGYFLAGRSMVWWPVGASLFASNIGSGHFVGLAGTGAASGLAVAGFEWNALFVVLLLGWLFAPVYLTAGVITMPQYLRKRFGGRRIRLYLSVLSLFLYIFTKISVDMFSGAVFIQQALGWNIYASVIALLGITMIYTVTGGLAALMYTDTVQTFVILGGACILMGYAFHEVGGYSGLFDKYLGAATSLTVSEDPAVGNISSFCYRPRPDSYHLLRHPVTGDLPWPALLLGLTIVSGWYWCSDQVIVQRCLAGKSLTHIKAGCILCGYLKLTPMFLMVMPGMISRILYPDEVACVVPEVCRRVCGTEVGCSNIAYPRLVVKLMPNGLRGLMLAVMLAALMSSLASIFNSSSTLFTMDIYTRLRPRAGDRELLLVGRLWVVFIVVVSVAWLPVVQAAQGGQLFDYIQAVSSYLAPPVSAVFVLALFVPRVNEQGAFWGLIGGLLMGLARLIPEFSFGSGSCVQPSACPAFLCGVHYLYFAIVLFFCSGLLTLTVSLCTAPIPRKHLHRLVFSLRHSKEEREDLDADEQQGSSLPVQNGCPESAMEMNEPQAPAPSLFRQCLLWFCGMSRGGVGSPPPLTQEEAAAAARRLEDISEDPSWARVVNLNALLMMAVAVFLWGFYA

diabetic mice = details: cited from earlier work
T2DN rats [1] = assay: Eight-arm radial water maze test of spatial learning and memory; type: in vivo, rat; details: DM (T2DN) rats, tests 2, 24, 48 and 72 hours post training; FIG. 8
Experimental: Unless otherwise indicated, all experiments using SGLT2 inhibitors were performed on 18-month old male Sprague Dawley (SD) and 14-month old […] rats, a genetic rat model of type II diabetes. Outbred SD rats purchased from Charles River were used as a nondiabetic control rat since identical genotypes are not necessary for this study. […] rats were prepared according to Diabetes, vol. 53, March 2004, pages 735-742. […] Treatment with an SGLT2 inhibitor began at 14-months of age and lasted for 4 months to determine whether control of hyperglycemia can slow the progression of cognitive dysfunction. Rats received either a vehicle or the SGLT2 inhibitor, luseogliflozin, at a dose of 20 mg/kg/day via drinking water. The SD rats were used as control. […] The rats are trained to identify a platform marked with a visual cue in one of the 8 arms of the pool to escape. Four memory trials are performed at 2, 24, 48 and 72 hrs after the training, which consist of 4 consecutive swims. The time to reach the platform (latency), the number of errors, distance traveled and swim speed were recorded (Nat Protoc 1: 1671-1679, 2006). Control, DM and DM luseogliflozin treated rats were trained on the first day to recognize the platform located in one of the eight arms to escape, and repeated tests were performed 2, 24, 48, and 72 hours post training. The time taken by the rats to reach the platform was recorded. […]

[2] = tested on: middle cerebral artery of T2DN rats; assay: Pressure-induced myogenic response of isolated middle cerebral artery; type: ex vivo, rat; details: aged T2DN rats, 20 mg/kg/day via drinking water for 4 months; FIG. 4
Description: To measure the myogenic response of cerebral arteries, a section of the brain containing middle cerebral artery (MCA) was dissected and immediately placed in Tyrode's solution. A branch of the MCA was microdissected and cannulated with glass pipettes in a pressure myograph chamber filled with a physiologic salt solution (PSS). The vessels were equilibrated at a transmural pressure of 40 mmHg to develop spontaneous tone. After preconditioning, the inner diameter (ID) of MCA in response to intraluminal pressures ranging from 40 to 180 mmHg in steps of 20 mmHg was measured to access the myogenic response. Then, a passive pressure-diameter relationship was determined by replacing the bath solution with calcium-free PSS. The myogenic reactivity in response to an elevation in perfusion pressure was calculated by the formula: IDpressure/D40 mmHg×100(%). […] Next the effect of SGLT2 inhibitor was examined in the treatment of impaired myogenic response and autoregulation of cerebral blood flow was determined. […] The myogenic reactivity in response to an elevation in perfusion pressure was calculated by the formula: Dpressure/ID60 mmHg×100(%). […] After a 10-min equilibration period, baseline CBF was measured at 100 mmHg. […] CBF was measured at each step when the MAP reached a steady state. The infusion of phenylephrine was then stopped which allowed MAP to return to 100 mmHg, and CBF was re-recorded. […]

T2DN rats [3] = assay: Blood-brain barrier leakage by Evans blue dye; type: in vivo, rat; details: aged T2DN rats, long-term treatment, MAP 180 mmHg for 1 hour; FIG. 6
Experimental: Unless otherwise indicated, all experiments using SGLT2 inhibitors were performed on 18-month old male Sprague Dawley (SD) and 14-month old […] rats, a genetic rat model of type II diabetes. Outbred SD rats purchased from Charles River were used as a nondiabetic control rat since identical genotypes are not necessary for this study. […] rats were prepared according to Diabetes, vol. 53, March 2004, pages 735-742. […] Treatment with an SGLT2 inhibitor began at 14-months of age and lasted for 4 months to determine whether control of hyperglycemia can slow the progression of cognitive dysfunction. Rats received either a vehicle or the SGLT2 inhibitor, luseogliflozin, at a dose of 20 mg/kg/day via drinking water. The SD rats were used as control. To determine the impact of higher cerebral blood flow with extended middle cerebral artery diameters on the brain, the brains of SGLT2-treated and untreated rats were assessed for blood brain leakage (BBB). Evans blue (EB) dye was used to compare the degree of BBB leakage. EB was injected via the femoral vein, and MAP was maintained at 180 mmHg for 1 hour by adjusting the infusion rate of phenylephrine. […] The brain was then homogenized and BBB leakage was quantitated using a fluorescent microplate reader at excitation and emission wavelengths of 620 nm and 680 nm.

T2DN rats [4] = assay: Functional hyperemia (neurovascular coupling) in response to whisker stimulation; type: in vivo, rat; details: old diabetic T2DN rats, whisker stimulation 10 Hz for 60 seconds; FIG. 7
Experimental: Unless otherwise indicated, all experiments using SGLT2 inhibitors were performed on 18-month old male Sprague Dawley (SD) and 14-month old […] rats, a genetic rat model of type II diabetes. Outbred SD rats purchased from Charles River were used as a nondiabetic control rat since identical genotypes are not necessary for this study. […] rats were prepared according to Diabetes, vol. 53, March 2004, pages 735-742. […] Treatment with an SGLT2 inhibitor began at 14-months of age and lasted for 4 months to determine whether control of hyperglycemia can slow the progression of cognitive dysfunction. Rats received either a vehicle or the SGLT2 inhibitor, luseogliflozin, at a dose of 20 mg/kg/day via drinking water. The SD rats were used as control. […] In these studies, neurovascular coupling (NVC) responses were investigated prior to cerebral autoregulation study. […] Cortical blood flow (CBF) was measured using a laser Doppler flowmeter ([…] probe was placed above somatosensory cortex for the recording of LDF signal change (CBFchange). Percentage changes in CBF at various perfusion pressures vs. CBF at perfusion pressure of 100 mmHg were determined in response to whisker stimulation.

T2DN rats [5] = assay: Plasma glucose and HbA1c levels in aged diabetic T2DN rats during drug treatment; type: in vivo, rat; details: 20 mg/kg/day via drinking water, from 14 months of age for 4 months, FIG. 3
Experimental: Unless otherwise indicated, all experiments using SGLT2 inhibitors were performed on 18-month old male Sprague Dawley (SD) and 14-month old […] rats, a genetic rat model of type II diabetes. Outbred SD rats purchased from Charles River were used as a nondiabetic control rat since identical genotypes are not necessary for this study. […] rats were prepared according to Diabetes, vol. 53, March 2004, pages 735-742. […] Treatment with an SGLT2 inhibitor began at 14-months of age and lasted for 4 months to determine whether control of hyperglycemia can slow the progression of cognitive dysfunction. Rats received either a vehicle or the SGLT2 inhibitor, luseogliflozin, at a dose of 20 mg/kg/day via drinking water. The SD rats were used as control. The levels of plasma glucose and HbA1c were measured by drawing a drop of blood from the tail vein during drug treatment and using traditional analytical methods to determine the concentration of plasma glucose and HbA1c.

T2DN rats [6] = assay: Autoregulation of cerebral blood flow (laser Doppler flowmetry); type: in vivo, rat; details: aged T2DN rats, 20 mg/kg/day via drinking water for 4 months; FIG. 5
Experimental: Measurements of arterial pressure and cortical blood flow (CBF) were performed by inserting cannulas in the femoral artery and vein for drug delivery and monitoring the mean arterial pressure (MAP). A closed cranial window was prepared on both sides of the brain by thinning the bone using a dental drill until the vessels on the surface of the brain could be visualized. Cortical blood flow (CBF) was measured using a laser Doppler flowmeter (LDF). Unless otherwise indicated, all experiments using SGLT2 inhibitors were performed on 18-month old male Sprague Dawley (SD) and 14-month old […] rats, a genetic rat model of type II diabetes. […] Next the effect of SGLT2 inhibitor was examined in the treatment of impaired myogenic response and autoregulation of cerebral blood flow was determined. […] The myogenic reactivity in response to an elevation in perfusion pressure was calculated by the formula: Dpressure/ID60 mmHg×100(%). […] After a 10-min equilibration period, baseline CBF was measured at 100 mmHg. […] CBF was measured at each step when the MAP reached a steady state. The infusion of phenylephrine was then stopped which allowed MAP to return to 100 mmHg, and CBF was re-recorded. […] Percentage change of CBF was calculated by the formula: [(CBFMAP-CBFbaseline)/CBFbaseline]×100(%).

| SMILES | cognitive functions (cognitive performance) (diabetic patients) | selectivity for SGLT2 compared to SGLT1 (SGLT2) | cognitive function (diabetic mice) | escape time (time to reach the platform), cognitive performance (T2DN rats [1]) | diameters of middle cerebral artery upon exposure to higher perfusion pressures (myogenic response) [2] | blood brain barrier damage (Evans blue leakage) (T2DN rats [3]) | functional hyperemia in response to whisker stimulation (T2DN rats [4]) | levels of HbA1c (T2DN rats [5]) | levels of plasma glucose (T2DN rats [5]) | cerebral blood flow on elevation of MAP (autoregulation) (T2DN rats [6]) |
| --- | --- | --- | --- | --- | --- | --- | --- | --- | --- | --- |
| Cc1ccc([C@@H]2O[C@H](CO)[C@@H](O)[C@H](O)[C@H]2O)cc1Cc1ccc(-c2ccc(F)cc2)s1 [canagliflozin] | no worsening of their cognitive functions | least selective | – | – | – | – | – | – | – | – |
| OC[C@H]1O[C@@H](c2ccc(Cl)c(Cc3ccc(O[C@H]4CCOC4)cc3)c2)[C@H](O)[C@@H](O)[C@@H]1O [empagliflozin] | no worsening of their cognitive functions | greatest selectivity | cognitive function improving effect | – | – | – | – | – | – | – |
| CCOc1ccc(Cc2cc([C@@H]3S[C@H](CO)[C@@H](O)[C@H](O)[C@H]3O)c(OC)cc2C)cc1 [luseogliflozin] | – | – | – | reduced escape time similar to normal rats | completely reversed the increase in the diameters of middle cerebral artery | completely reversed the blood brain barrier damage | restored | reduced both the levels of plasma glucose and HbA1c to near normal | reduced both the levels of plasma glucose and HbA1c to near normal | restored to normal levels |
